Results reported in PMC7344389, “Discovery of Anti-Amoebic Inhibitors from Screening the MMV Pandemic Response Box on Balamuthia mandrillaris, Naegleria fowleri, and Acanthamoeba castellanii” (Pathogens, 2020).
Read-outs that look alike come from different tables or passages of the source.

Assays:
Assay type in all cases: cell-based
[1] = test system: Balamuthia mandrillaris trophozoites; assay: CellTiter-Glo 2.0 trophocidal assay, B. mandrillaris; conditions: for IC50: 72 h, CTG method, duplicate twofold serial dilutions from 10 µM, mean ± SD; for Selectivity Index (A549 IC50/B. mandrillaris IC50): SI = (IC50 A549)/(IC50 Amoeba)
Procedure: Pathogenic Balamuthia mandrillaris (CDC:[…]; American Type Culture Collection (ATCC) 50209), a GAE isolate, isolated from a pregnant baboon at the San Diego Zoo in 1986 was donated by Luis Fernando […] University, Mexico [43]. Trophozoites were routinely grown axenically in Balamuthia mandrillaris Itson (BMI) media at 37 °C, 5% CO2 in vented 75 cm^2 tissue culture flasks (Olympus, El Cajon, CA, USA), until the cells were 80-90% confluent. For sub-culturing, 0.25% Trypsin-EDTA (Gibco, Gaithersburg, MD, USA) cell detachment reagent was used to detach the cells from the culture flasks. The cells were collected by centrifugation at 4000 rpm at 4 °C. Complete BMI media is produced by the addition of 10% fetal bovine serum (FBS) and 125 μg of penicillin/streptomycin antibiotics. The trophocidal activity of compounds was assessed using the CellTiter-Glo 2.0 luminescent viability assay (Promega, Madison, WI, USA), as previously described. Trophozoites were routinely cultured as described above and only logarithmic trophozoites were used. […] Inhibitors were assessed for percent inhibition using the criteria of ≤33% growth inhibition (no inhibition), 33-67% growth inhibition (moderate inhibition), and ≥67% growth inhibition (strong inhibition). […] We used this process to reduce the number of potential false positives. […] All assays were incubated at each of the parasites' representative growth temperatures, described above, for 72 h. At the 72 h time point, 25 μL of CellTiter-Glo 2.0 reagent was added to all wells of the 96-well plates using the Biomek NX^P automated workstation. The plates were protected from light and contents were mixed using an orbital shaker at 300 rpm at room temperature for 2 min to induce cell lysis. After shaking, the plates were equilibrated at room temperature for 10 min to stabilize the luminescent signal. The adenosine triphosphate (ATP) luminescent signal (relative light units; RLUs) was measured at 490 nm with a SpectraMax I3X plate reader (Molecular Devices, Sunnyvale, CA, USA). Drug inhibitory concentration (IC50) curves were generated using total ATP RLUs, where controls were calculated as the average of replicates using the Levenberg-Marquardt algorithm, using DMSO as the normalization control, as defined in Collaborative Drug Discovery Inc. (CDD) Vault (Burlingame, CA, USA). Values reported are from a minimum of two biological replicates with standard deviations.

[2] = test system: Naegleria fowleri trophozoites; assay: CellTiter-Glo 2.0 trophocidal assay, N. fowleri; conditions: for IC50: 72 h, CTG method, duplicate twofold serial dilutions from 10 µM, mean ± SD, read-out: N. fowleri Mean IC50 (µM) ± SD; for Selectivity Index (A549 IC50/N. fowleri IC50): SI = (IC50 A549)/(IC50 Amoeba); for potency against N. fowleri, in words: dose-response, CTG
Procedure: Pathogenic Naegleria fowleri (ATCC 30215), a clinical isolate obtained from a child in Adelaide, Australia, that died of PAM in 1969 was previously purchased from the American Type Culture Collection (ATCC). Trophozoites were routinely grown axenically at 34 °C in Nelson’s complete medium (NCM) in non-vented 75 cm^2 tissue culture flasks (Olympus, El Cajon, CA, USA), until the cells were 80–90% confluent. For sub-culturing, cells were placed on ice to detach the cells from the culture flasks. The cells were collected by centrifugation at 4000 rpm at 4 °C. Complete NCM media is produced by the addition of 10% FBS and 125 μg of penicillin/streptomycin antibiotics.
The trophocidal activity of compounds was assessed using the CellTiter-Glo 2.0 luminescent viability assay (Promega, Madison, WI, USA), as previously described. Trophozoites were routinely cultured as described above and only logarithmic trophozoites were used. In brief, B. mandrillaris, N. fowleri, or A. castellanii trophozoites cultured in their corresponding media were seeded at 16,000, 3000, or 1440 cells/well into white 96-well plates (Costar 3370), respectively. Initially all compounds were assessed in a single-point drug screen at 10 and 1 μM, as previously described. […] Control wells were supplemented with 0.1% (10 μM screening plate) or 0.01% (1 μM screening plate) DMSO, as the negative controls, or 12.5 μM of chlorhexidine, as the positive control. Following the single-point assays at 10 and 1 µM, we prioritized compounds for progression to IC50 determinations. […] We used this process to reduce the number of potential false positives. Drugs were cherry-picked, dissolved in the media specific to each parasite, and assessed in twofold serial dilutions from the highest concentration of 10 μM. All assays were incubated at each of the parasites’ representative growth temperatures, described above, for 72 h. At the 72 h time point, 25 μL of CellTiter-Glo 2.0 reagent was added to all wells of the 96-well plates using the Biomek NX^P automated workstation. The plates were protected from light and contents were mixed using an orbital shaker at 300 rpm at room temperature for 2 min to induce cell lysis. After shaking, the plates were equilibrated at room temperature for 10 min to stabilize the luminescent signal. The adenosine triphosphate (ATP) luminescent signal (relative light units; RLUs) was measured at 490 nm with a SpectraMax I3X plate reader (Molecular Devices, Sunnyvale, CA, USA). Drug inhibitory concentration (IC50) curves were generated using total ATP RLUs, where controls were calculated as the average of replicates using the Levenberg–Marquardt algorithm, using DMSO as the normalization control, as defined in Collaborative Drug Discovery Inc. (CDD) Vault (Burlingame, CA, USA). Values reported are from a minimum of two biological replicates with standard deviations.

[3] = test system: A549 human lung carcinoma cells; assay: MTS cytotoxicity counter-screen of reconfirmed hits; conditions: Homo sapiens
Procedure: Cytotoxicity of the reconfirmed hits was determined by using the CellTiter 96® AQueous One Solution Cell Proliferation Assay (Promega, Madison, WI) on A549 human lung carcinoma cells. A549 cells were seeded at a concentration of 1.6 × 10^4 cells/mL in 96-well tissue culture plates (Corning, NY, USA), in the presence of serially diluted active hits against B. mandrillaris, N. fowleri, or A. castellanii. Positive control wells contained cells and media; negative control wells contained 0.1% DMSO. Cells were grown in F12K medium supplemented with 10% FBS and 1% gentamycin (all supplied from Fisher Scientific, Atlanta, GA, USA). The inhibitor concentration started at 10 µM and was diluted in doubling dilutions to assess cytotoxicity in comparison to the respective free-living amoeba. Total volume of each well was 100 µL and plates were incubated at 37 °C, 5% CO2 for 72 h. Next, 4 h before the time-point, 20 µL of MTS (Promega, Madison, WI, USA) was added to each well. Inhibition of A549 growth was assessed at the 72 h time-point measuring the optical density (OD) values at 490 nm using a SpectraMax I3X plate reader (Molecular Devices, Sunnyvale, CA, USA). Curve fitting using non-linear regression was carried out using the average of replicates and the Levenberg–Marquardt algorithm, using DMSO as the normalization control, as defined in CDD Vault (Burlingame, CA, USA).

[4] = A549, MTS assay, 72 h, doubling dilutions from 10 µM, read-out: A549 Mean IC50

| Structure (SMILES) | IC50 ([1]; Balamuthia mandrillaris) [µM] | IC50 ([2]; Naegleria fowleri) [µM] | Selectivity Index (A549 IC50/N. fowleri IC50) [2] | Selectivity Index (A549 IC50/N. fowleri IC50) ([2]; listed as terbinafine) | potency against N. fowleri, in words [2] | IC50 ([3]; A549, 72 h, read-out: A549 Mean IC50 (µM)) [µM] | Selectivity Index (A549 IC50/B. mandrillaris IC50) [1] | potency against B. mandrillaris, in words ([1]; dose-response, CTG) | IC50 [3, 4] [µM] | IC50 ([2]; listed as butenafine) [µM] | IC50 [2] [µM] | Selectivity Index (A549 IC50/N. fowleri IC50) ([2]; listed as ravuconazole) | IC50 [1] [µM] |
| --- | --- | --- | --- | --- | --- | --- | --- | --- | --- | --- | --- | --- | --- |
| CN(C/C=C/C#CC(C)(C)C)Cc1cccc2ccccc12 [Terbinafine] | > 10 | 0.79 ± 0.7 | ≥12.7 | ≥ 10 | nanomolar potency | > 10 | – | – | – | – | – | – | – |
| Cc1[nH]c2ccccc2c1CCNCc1ccc(/C=C/C(=O)NO)cc1 [Panobinostat] | 0.39 ± 0.04 | 0.22 ± 0.06 | <1.44 | – | nanomolar potency | – | <0.79 | nanomolar potency | < 0.31 | – | – | – | – |
| CN(Cc1ccc(C(C)(C)C)cc1)Cc1cccc2ccccc12 [Butenafine] | > 10 | – | ≥9.52 | – | – | – | – | – | > 10 | ≤ 10 | 1.05 ± 0.35 | – | – |
| C[C@@H](c1nc(-c2ccc(C#N)cc2)cs1)[C@](O)(Cn1cncn1)c1ccc(F)cc1F [Ravuconazole] | > 10 | 0.05 ± 0.02 | – | – | nanomolar potency | – | – | – | > 10 | – | – | ≥ 10 | – |
| CC(=O)Oc1ccccc1C(=O)Nc1ncc([N+](=O)[O-])s1 [Nitazoxanide] | ≤ 10 | 3.6 | ≥2.78 | – | – | – | ≥1.16 | – | > 10 | – | – | – | 8.6 ± 1.98 |
